Where two headings read alike, the source gives them in different places.

Data on 2 compounds can be found in patent US8242203B2, “Covalently attached nile blue derivatives for optical sensors” (priority 2005, dated 2012).

For data set [1] the following is noted: comparison value, cited from earlier work.
Data set [2] can be described thus: Leaching of chromoionophore from ISE membrane during conditioning and measurement. The data set is classed as physicochemical. Particulars: conditioning in contact with buffer and measurements. How it is done: ISE Membrane Preparation and Measurements. ISE membranes were prepared by dissolving chromoionophore (10 mmol/kg), NaTFPB (2 mmol/kg), PVC and plasticizer (DOS or NPOE) to give a total cocktail mass of 140 mg in 1.5 mL of THF. The cocktail of the membrane with grafted chromoionophore contained 2 mmol/kg NaTFPB, 10 wt % MMA-DMA polymer with grafted indicators, PVC and plasticizer (DOS or NPOE). Cocktails were poured into glass rings (2.2 cm i.d.) affixed onto glass microscope slides.
The solvent was evaporated overnight to give a transparent membrane. The parent membranes were then conditioned for at least 12 hours in pH buffered solutions. For pH titrations, buffer solutions are 10 mM citric acid and 10 mM boric acid with the indicated concentrations of NaCl (either 10 mM or 0.1 mM) adjusted to pH 1.5 by 1 M standard HCl, or 10 mM phosphate buffer solution with NaCl as background. The solution was titrated with a 0.1 M standard NaOH solution and a pH electrode was used to monitor the sample pH. All experimental results given are the average of at least three electrodes, with calculated standard deviations.
The first polymerizable chromoionophore NB1 is a derivative of the highly basic oxazine-dye molecule Nile Blue attached to a acryloyloxybenzoyl group. The pH responses of NB1 based ion selective electrode (“ISE”) membranes were investigated first. […]

For the compound `CCCCCCCCCCCCCCCCCC(=O)N=c1cc2oc3cc(N(CC)CC)ccc3nc-2c2ccccc12` [ETH 5294, 9-(diethylamino)-5-octadecanoylimino-5H-benzo[a]phenoxazine], the pKa is recorded as 11.4 in data set [1] (PVC-DOS) and 14.8 in data set [1] (PVC-NPOE).
On to `C=CC(=O)Oc1ccc(C(=O)/N=c2/cc3oc4cc(N(CC)CC)ccc4nc-3c3ccccc23)cc1` [NB1], for which the “leaching of the dye from the ISE membrane” value in data set [2] is given as “found to leach from the membrane”.

Usually pKa stands for the negative logarithm of the acid dissociation constant.
